Data published in patent US20210228515A1, “BENZOIC ACID OR A SALT AND DERIVATIVE THEREOF FOR USE IN PREVENTING OR TREATING ANTI-N-METHYL-D-ASPARTATE RECEPTOR ENCEPHALITIS” (EXCELSIOR PHARMATECH LABS, priority 2018, published 2021).

Experiment: Case treatment of a patient with confirmed anti-NMDAR encephalitis
Format: in vivo
Details: for response to antipsychotics: high doses: aripiprazole 20-30 mg, clozapine 300-500 mg, clozapine 500 mg plus paliperidone 9 mg, before the diagnosis was confirmed

| SMILES | response to antipsychotics | clinical improvement (sodium benzoate 1000 mg per day for 2 months, patient able to return to a normal life) | psychotic symptoms including dissociation and agitation (sodium benzoate 1000 mg per day for 2 months, patient refractory to antipsychotics, ECT and immunotherapy) |
| --- | --- | --- | --- |
| Cc1nc2n(c(=O)c1CCN1CCC(c3noc4cc(F)ccc34)CC1)CCCC2O (stereo not shown) [paliperidone] | very poor response |  |  |
| O=C1CCc2ccc(OCCCCN3CCN(c4cccc(Cl)c4Cl)CC3)cc2N1 [aripiprazole] | very poor response |  |  |
| O=C([O-])c1ccccc1.[Na+] [Sodium benzoate, sodium benzoate] |  | obvious clinical improvement | reduced |
